{"source": "paper PMC9978853", "about": "(Acta Pharmaceutica Sinica. B, 2022)", "molecular_target": "NAMPT (Mus musculus, UniProt Q99KQ4)", "sequence (Q99KQ4 whole entry)": "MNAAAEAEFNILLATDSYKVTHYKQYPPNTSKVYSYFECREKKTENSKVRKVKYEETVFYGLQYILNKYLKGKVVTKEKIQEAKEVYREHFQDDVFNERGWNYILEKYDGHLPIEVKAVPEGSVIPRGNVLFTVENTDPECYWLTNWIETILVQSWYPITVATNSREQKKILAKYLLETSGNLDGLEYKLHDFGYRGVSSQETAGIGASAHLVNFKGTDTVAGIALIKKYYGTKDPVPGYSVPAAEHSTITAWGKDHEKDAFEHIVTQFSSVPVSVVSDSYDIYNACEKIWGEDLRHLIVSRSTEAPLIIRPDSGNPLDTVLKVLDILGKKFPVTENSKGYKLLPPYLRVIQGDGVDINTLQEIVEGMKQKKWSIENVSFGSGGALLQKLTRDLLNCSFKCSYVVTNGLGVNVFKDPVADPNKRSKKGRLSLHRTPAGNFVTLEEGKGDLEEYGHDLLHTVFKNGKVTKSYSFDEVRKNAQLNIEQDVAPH", "test": "co-crystal structure", "type": "binding"}
{"smiles": "O=C(NCc1ccc([C@@H]2O[C@H](COP(=O)(O)O)[C@@H](O)[C@H]2O)cc1)Nc1ccc(S(=O)(=O)c2ccccc2)cc1", "note": "[9a, ((2R,3S,4R,5S)-3,4-Dihydroxy-5-(4-((3-(4-(phenylsulfonyl)phenyl)ureido)methyl)phenyl)tetrahydrofuran-2-yl)methyldihydrogenphosphate]", "values": [{"measurement": "co-crystal structure", "value": "Compound 9a bound to dimeric NAMPT (PDB: 7Q8T)."}]}
